Test results from US20240066043A1, “PHARMACEUTICAL CO[…] IMPROVED DISSOLUTION AND RAPID ONSET BY TARGETED STOMACH AND MUCOSAL RELEASE” (Xpira Pharmaceuticals Inc., priority 2022, published 2024).
Like-named read-outs stand apart in the source and are kept apart here.

Columns and labels:
[1] = cited from earlier work
[2] = cited from earlier work; remark: listed apart in the source
[3] = cited from earlier work; remark: listed apart in the source
[4] = cited from earlier work; remark: listed apart in the source
[5] = Particle size analysis from SEM micrographs (circle equivalent diameter); format: physicochemical; conditions: SEM micrograph FIG. 4B, unformulated psilocybin
[6] = target: T1, neocortical serotonin 5-HT2A receptors (Homo sapiens, UniProt P28223); conditions: 25 mg oral dose (Madsen et al., 2019); cited from earlier work
T1 construct: host or cells: neocortex in vivo
T1 sequence (P28223 whole entry): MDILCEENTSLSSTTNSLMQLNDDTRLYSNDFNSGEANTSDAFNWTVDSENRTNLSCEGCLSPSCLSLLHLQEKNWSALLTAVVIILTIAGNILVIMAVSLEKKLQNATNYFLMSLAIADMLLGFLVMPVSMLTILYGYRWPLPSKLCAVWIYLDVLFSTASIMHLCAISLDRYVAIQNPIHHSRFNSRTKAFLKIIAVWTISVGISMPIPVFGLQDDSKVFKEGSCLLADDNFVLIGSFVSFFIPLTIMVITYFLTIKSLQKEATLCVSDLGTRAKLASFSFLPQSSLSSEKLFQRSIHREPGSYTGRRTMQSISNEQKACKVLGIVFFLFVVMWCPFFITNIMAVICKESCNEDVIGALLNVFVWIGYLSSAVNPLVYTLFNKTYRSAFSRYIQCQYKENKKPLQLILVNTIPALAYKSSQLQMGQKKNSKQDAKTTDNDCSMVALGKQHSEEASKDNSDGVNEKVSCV

[7] = Flowability measurements (bulk density, tapped density, Hausner ratio, compressibility index)
[8] = oral 0.224 mg/kg psilocybin (10 to 20 mg) (Hasler et al., 1997)
[9] = oral psilocybin (Brown et al., 2017)

SMILES: CN(C)CCc1c[nH]c2cccc(O)c12 [psilocin]
- time to maximum plasma levels ([1]; oral, rats (Chen et al., 2011)): approximately 90 minutes
- total volume of psilocin absorbed from the digestive tract ([1]; psilocybin administered orally to rats (Kalberer et al., 1962)): approximately 50%
- time until psilocin detectable in plasma ([2]; after administration of the parent compound psilocybin): ≤ 20 min
- time until psilocin appears in plasma ([2]; after oral administration): ≤ 15 min
- psilocin half-life ([2]; following oral administration of psilocybin (Brown et al., 2017)): approximately 3±1.1 hours
- half-life of psilocin in blood ([2]; in vivo): 2 to 3 h
- average blood concentration of the active metabolite psilocin [2, 8]: 8.2 ± 2.8 ng/mL
- time of average blood concentration of psilocin [2, 8]: 105 ± 37 min
- time of peak psilocin levels [2, 9]: approximately 80 minutes
- time psilocin is detectable after administration [2, 9]: up to 24 hours
- share of overall clearance of psilocin through renal excretion ([2]; urine over 24 hours after a single dose (Hasler et al., 2002)): less than 4%

SMILES: CN(C)CCc1c[nH]c2cccc(OP(=O)(O)O)c12 [Psilocybin, 3[2-(dimethylamino)ethyl]-1H-indol-4-yl] dihydrogen phosphate]
- solubility ([3]; boiling methanol): 120 parts
- solubility ([3]; boiling water): 20 parts
- stability ([3]; dark storage at controlled room temperature): stable over extended periods
- peak of psychoactive effects ([4]; after a dose): about two hours
- onset of noticeable psychoactive effects ([4]; after an oral dose): within one hour
- loss of psychoactive effects ([4]; after the dose): around six hours
- pharmacokinetics of psilocybin (as psilocin), dose linearity ([2]; dose range 0.3-0.6 mg/kg (Brown et al., 2017; Hasler et al., 2002)): linear
- estimated dose-normalized bioavailability of psilocybin ([2]; oral 0.224 mg/kg psilocybin, N=3 (Hasler et al., 1997)): 52.7±20%
- bioavailability ([2]; oral psilocybin): ~50%
- crystal size [5]: ≤ 30 μm
- occupancy of neocortical serotonin 5-HT2A receptors [6]: near-maximal occupancy
- Bulk density ([7]; USP41-NF36 616): 0.19 g/mL
- Tapped density ([7]; USP41-NF36 616): 0.45 g/mL
- Compressibility index ([7]; USP41-NF36 1174): 58%
- Hausner ratio ([7]; tap density divided by bulk density, USP41-NF36 1174): 2.36
